Data taken from article PMC9721025, “Pharmacokinetic study of the main components of Tanreqing capsules and Tanreqing injections in beagles by liquid chromatography–tandem mass spectrometry” (Chinese Medicine, 2022).
Read-outs that look alike come from different tables or passages of the source.

Tests used:
[1] = Pharmacokinetics in beagles, single-dose regimen of TRQI (i.v.) or TRQC (oral), plasma LC-MS/MS; type: in vivo, beagle; settings: for AUC(0-t) / Cmax / Tmax / half-life: beagle, dog, plasma; for AUC(0-t): read-out: AUC0–24 h; for Cmax / Tmax / half-life: mean of six beagles
Method in brief: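 Plasma parameters came from non-compartmental analysis of LC–MS/MS data after methanol/acetonitrile precipitation. Three male and three female beagles each received single doses of both formulations in a two-period crossover, 7 days apart: 0.5 mL/kg TRQI intravenously and 0.09 g/kg TRQC by mouth, with 14 blood samples over 24 h.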

[2] = Stability of analytes in dog plasma (QC samples); type: in vitro ADME
Method in brief: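 QC samples in dog plasma at three concentration levels, three replicates each, tested for short-term (6 h room temperature), long-term (−80 °C, 30 days) and freeze–thaw (three cycles, −80 °C to room temperature) stability. Working solutions prepared in methanol/water 10:90.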

[3] = Tanreqing injection, cited from earlier work
[4] = Pharmacokinetics in beagles, multiple-dose regimen (once per day for 7 days) of TRQI or TRQC, plasma LC-MS/MS; type: in vivo; settings: beagle, dog
Method in brief: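 Six beagles dosed once daily for 7 days with TRQI (0.5 mL/kg injection) or TRQC (0.09 g/kg), crossover after washout. Plasma sampled 0–24 h after seventh dose, methanol/acetonitrile-precipitated, measured by LC–MS/MS. Steady-state parameters by non-compartmental analysis.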

[5] = both sexes, iv, single i.v. dose of TRQI 0.5 mL/kg
[6] = both sexes, single oral dose of TRQC 0.09 g/kg
[7] = n = 3, high QC: nominal 200 ng/mL baicalin, 1000 ursodeoxycholic acid, 100 chenodeoxycholic acid and chlorogenic acid
[8] = n = 3, low QC: nominal 4 ng/mL baicalin, 20 ursodeoxycholic acid, 2 chenodeoxycholic acid and chlorogenic acid
[9] = n = 3, middle QC: nominal 20 ng/mL baicalin, 100 ursodeoxycholic acid, 10 chenodeoxycholic acid and chlorogenic acid
[10] = both sexes, iv, TRQI 0.5 mL/kg once per day for 7 days, mean
[11] = both sexes, po, TRQC 0.09 g/kg once per day for 7 days, mean

time at which oral absorption reached a peak ([1]; TRQC, oral, dogs): ~5 h | AUC(0-t) ([1]; both sexes, iv, 0.5 mL/kg, single TRQI 0.5 mL/kg, Mean): 4.08 µg·h/mL | Cmax [1, 5]: 2.75 µg/mL | Tmax [1, 5]: 0.08 h | half-life [1, 5]: 27.7 h | AUC(0-t) ([1]; both sexes, po, 0.09 g/kg, single TRQCs 0.09 g/kg, Mean): 4.4 µg·h/mL | Cmax [1, 6]: 1.33 µg/mL | Tmax [1, 6]: 5.94 h | half-life [1, 6]: 10.4 h | AUC(0-t) ([1]; female, iv, 0.5 mL/kg, single TRQI 0.5 mL/kg, beagle No 4): 0.898 µg·h/mL | AUC(0-t) ([1]; female, iv, 0.5 mL/kg, single TRQI 0.5 mL/kg, beagle No 5): 1.16 µg·h/mL | AUC(0-t) ([1]; female, iv, 0.5 mL/kg, single TRQI 0.5 mL/kg, beagle No 6): 0.992 µg·h/mL | AUC(0-t) ([1]; female, po, 0.09 g/kg, single TRQCs 0.09 g/kg, beagle No 4): 11.3 µg·h/mL | AUC(0-t) ([1]; female, po, 0.09 g/kg, single TRQCs 0.09 g/kg, beagle No 5): 1.88 µg·h/mL | AUC(0-t) ([1]; female, po, 0.09 g/kg, single TRQCs 0.09 g/kg, beagle No 6): 3.7 µg·h/mL | AUC(0-t) ([1]; male, iv, 0.5 mL/kg, single TRQI 0.5 mL/kg, beagle No 1): 18.2 µg·h/mL | AUC(0-t) ([1]; male, iv, 0.5 mL/kg, single TRQI 0.5 mL/kg, beagle No 2): 1.1 µg·h/mL | AUC(0-t) ([1]; male, iv, 0.5 mL/kg, single TRQI 0.5 mL/kg, beagle No 3): 2.12 µg·h/mL | AUC(0-t) ([1]; male, po, 0.09 g/kg, single TRQCs 0.09 g/kg, beagle No 1): 1.7 µg·h/mL | AUC(0-t) ([1]; male, po, 0.09 g/kg, single TRQCs 0.09 g/kg, beagle No 2): 3.19 µg·h/mL | AUC(0-t) ([1]; male, po, 0.09 g/kg, single TRQCs 0.09 g/kg, beagle No 3): 4.59 µg·h/mL | Freeze-thaw stability (3 cycles) Mean ± S.D. concentration [2, 7]: 1048.41 ± 75.10 ng/mL | Long-term stability (30 days at – 80 °C) Mean ± S.D. concentration [2, 7]: 1081.75 ± 20.70 ng/mL | Short-term stability (6 h at room temperature) Mean ± S.D concentration [2, 7]: 1104.46 ± 16.75 ng/mL | Freeze-thaw stability (3 cycles) Mean ± S.D. concentration [2, 8]: 18.47 ± 1.66 ng/mL | Long-term stability (30 days at – 80 °C) Mean ± S.D. concentration [2, 8]: 18.77 ± 0.41 ng/mL | Short-term stability (6 h at room temperature) Mean ± S.D concentration [2, 8]: 19.38 ± 0.97 ng/mL | Freeze-thaw stability (3 cycles) Mean ± S.D. concentration [2, 9]: 87.08 ± 1.95 ng/mL | Long-term stability (30 days at – 80 °C) Mean ± S.D. concentration [2, 9]: 90.80 ± 1.57 ng/mL | Short-term stability (6 h at room temperature) Mean ± S.D concentration [2, 9]: 97.83 ± 0.62 ng/mL | AUC(0-inf) ([4]; both sexes, iv, 0.5 mL/kg, TRQI 0.5 mL/kg for 7 days, Mean): 19.1 µg·h/mL | AUC(0-t) ([4]; both sexes, iv, 0.5 mL/kg, TRQI 0.5 mL/kg for 7 days, Mean, read-out: AUC0–24 h): 16.4 µg·h/mL | Cmax at 7 days [4, 10]: 5.06 µg/mL | half-life at 7 days [4, 10]: 6.84 h | AUC(0-inf) ([4]; both sexes, po, 0.09 g/kg, TRQC 0.09 g/kg for 7 days, Mean): 35.3 µg·h/mL | AUC(0-t) ([4]; both sexes, po, 0.09 g/kg, TRQC 0.09 g/kg for 7 days, Mean, read-out: AUC0–24 h): 28.5 µg·h/mL | Cmax at 7 days [4, 11]: 3.4 µg/mL | Tmax at 7 days [4, 11]: 5.69 h | half-life at 7 days [4, 11]: 12 h | AUC(0-inf) ([4]; female, iv, 0.5 mL/kg, TRQI 0.5 mL/kg for 7 days, beagle No. 4): 14.9 µg·h/mL | AUC(0-t) ([4]; female, iv, 0.5 mL/kg, TRQI 0.5 mL/kg for 7 days, beagle No. 4, read-out: AUC0–24 h): 4.74 µg·h/mL | AUC(0-inf) ([4]; female, iv, 0.5 mL/kg, TRQI 0.5 mL/kg for 7 days, beagle No. 5): 4.22 µg·h/mL | AUC(0-t) ([4]; female, iv, 0.5 mL/kg, TRQI 0.5 mL/kg for 7 days, beagle No. 5, read-out: AUC0–24 h): 2.56 µg·h/mL | AUC(0-inf) ([4]; female, iv, 0.5 mL/kg, TRQI 0.5 mL/kg for 7 days, beagle No. 6): 2.81 µg·h/mL | AUC(0-t) ([4]; female, iv, 0.5 mL/kg, TRQI 0.5 mL/kg for 7 days, beagle No. 6, read-out: AUC0–24 h): 2.67 µg·h/mL | AUC(0-inf) ([4]; female, po, 0.09 g/kg, TRQC 0.09 g/kg for 7 days, beagle No. 4): 112 µg·h/mL | AUC(0-t) ([4]; female, po, 0.09 g/kg, TRQC 0.09 g/kg for 7 days, beagle No. 4, read-out: AUC0–24 h): 109 µg·h/mL | AUC(0-inf) ([4]; female, po, 0.09 g/kg, TRQC 0.09 g/kg for 7 days, beagle No. 5): 20.1 µg·h/mL | AUC(0-t) ([4]; female, po, 0.09 g/kg, TRQC 0.09 g/kg for 7 days, beagle No. 5, read-out: AUC0–24 h): 10.5 µg·h/mL | AUC(0-inf) ([4]; female, po, 0.09 g/kg, TRQC 0.09 g/kg for 7 days, beagle No. 6): 45 µg·h/mL | AUC(0-t) ([4]; female, po, 0.09 g/kg, TRQC 0.09 g/kg for 7 days, beagle No. 6, read-out: AUC0–24 h): 17.6 µg·h/mL | AUC(0-inf) ([4]; male, iv, 0.5 mL/kg, TRQI 0.5 mL/kg for 7 days, beagle No. 1): 75.9 µg·h/mL | AUC(0-t) ([4]; male, iv, 0.5 mL/kg, TRQI 0.5 mL/kg for 7 days, beagle No. 1, read-out: AUC0–24 h): 72.4 µg·h/mL | AUC(0-inf) ([4]; male, iv, 0.5 mL/kg, TRQI 0.5 mL/kg for 7 days, beagle No. 2): 1.86 µg·h/mL | AUC(0-t) ([4]; male, iv, 0.5 mL/kg, TRQI 0.5 mL/kg for 7 days, beagle No. 2, read-out: AUC0–24 h): 1.72 µg·h/mL | AUC(0-inf) ([4]; male, iv, 0.5 mL/kg, TRQI 0.5 mL/kg for 7 days, beagle No. 3): 14.6 µg·h/mL | AUC(0-t) ([4]; male, iv, 0.5 mL/kg, TRQI 0.5 mL/kg for 7 days, beagle No. 3, read-out: AUC0–24 h): 14.5 µg·h/mL | AUC(0-inf) ([4]; male, po, 0.09 g/kg, TRQC 0.09 g/kg for 7 days, beagle No. 1): 2.94 µg·h/mL | AUC(0-t) ([4]; male, po, 0.09 g/kg, TRQC 0.09 g/kg for 7 days, beagle No. 1, read-out: AUC0–24 h): 2.76 µg·h/mL | AUC(0-inf) ([4]; male, po, 0.09 g/kg, TRQC 0.09 g/kg for 7 days, beagle No. 2): 24.4 µg·h/mL | AUC(0-t) ([4]; male, po, 0.09 g/kg, TRQC 0.09 g/kg for 7 days, beagle No. 2, read-out: AUC0–24 h): 23.9 µg·h/mL | AUC(0-inf) ([4]; male, po, 0.09 g/kg, TRQC 0.09 g/kg for 7 days, beagle No. 3): 7.52 µg·h/mL | AUC(0-t) ([4]; male, po, 0.09 g/kg, TRQC 0.09 g/kg for 7 days, beagle No. 3, read-out: AUC0–24 h): 7.19 µg·h/mL
Structure (SMILES): C[C@H](CCC(=O)O)[C@H]1CC[C@H]2[C@@H]3[C@@H](O)C[C@@H]4C[C@H](O)CC[C@]4(C)[C@H]3CC[C@]12C [Ursodeoxycholic acid, ursodeoxycholic acid]
t1/2 ([3]; Hu's study): 0.933 h | t1/2 ([3]; another study): 0.233 h
